From paper PMC7080406 (eLife, 2020) come the findings set out here.

The target in test [1] is T1, MT2 (Homo sapiens, UniProt P49286).
T1 sequence (P49286 1-362): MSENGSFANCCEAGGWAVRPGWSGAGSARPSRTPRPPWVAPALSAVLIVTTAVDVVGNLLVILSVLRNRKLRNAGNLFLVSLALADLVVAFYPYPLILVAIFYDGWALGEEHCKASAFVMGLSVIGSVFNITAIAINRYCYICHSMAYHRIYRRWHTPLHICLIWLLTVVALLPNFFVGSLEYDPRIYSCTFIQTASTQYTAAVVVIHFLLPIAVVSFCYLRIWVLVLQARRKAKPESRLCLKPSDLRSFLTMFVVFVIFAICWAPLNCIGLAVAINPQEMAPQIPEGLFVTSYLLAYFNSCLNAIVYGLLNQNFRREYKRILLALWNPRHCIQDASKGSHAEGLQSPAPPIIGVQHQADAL
Briefly: [3H]melatonin competition radioligand binding, MT2 membranes. The arrangement: expressed in transfected cells; host or cells: HEK293T (ATCC CRL-11268), transient transfection. Conditions: read-out: MT2 pKi ± SEM (converted). The protocol:
(§1) The Radioligand binding assays were conducted by the NIMH Psychoactive Drug Screening Program (PDSP). The NIMH PDSP is directed by Bryan L. Roth, MD, PhD, at the University of North Carolina at Chapel Hill, North Carolina, and Program Officer Jamie Driscoll at NIMH, Bethesda, MD. Binding assay procedures and protocols are also available online at http://pdspdb.unc.edu/pdspWeb/?site=assays. […] Assay plates were sealed and incubated for 4 hr at 37°C in a humidified incubator until harvesting. Plates were harvested using vacuum filtration onto 0.3% polyethyleneimine pre-soaked 96-well Filtermat A (PerkinElmer) and washed three times with cold wash buffer (50 mM Tris, pH 7.4). Filters were dried and melted with a scintillation cocktail (Meltilex, PerkinElmer). Radioactivity was counted using a Wallac TriLux Microbeta counter (PerkinElmer). Results were analyzed using GraphPad Prism 7.0.

The target in another test is T2, 5-HT7A (Homo sapiens, UniProt P34969).
T2 construct: expressed in transfected cells; host or cells: HEK293T, transient transfection (NIMH PDSP)
T2 sequence (P34969 1-445 isoform P34969-2): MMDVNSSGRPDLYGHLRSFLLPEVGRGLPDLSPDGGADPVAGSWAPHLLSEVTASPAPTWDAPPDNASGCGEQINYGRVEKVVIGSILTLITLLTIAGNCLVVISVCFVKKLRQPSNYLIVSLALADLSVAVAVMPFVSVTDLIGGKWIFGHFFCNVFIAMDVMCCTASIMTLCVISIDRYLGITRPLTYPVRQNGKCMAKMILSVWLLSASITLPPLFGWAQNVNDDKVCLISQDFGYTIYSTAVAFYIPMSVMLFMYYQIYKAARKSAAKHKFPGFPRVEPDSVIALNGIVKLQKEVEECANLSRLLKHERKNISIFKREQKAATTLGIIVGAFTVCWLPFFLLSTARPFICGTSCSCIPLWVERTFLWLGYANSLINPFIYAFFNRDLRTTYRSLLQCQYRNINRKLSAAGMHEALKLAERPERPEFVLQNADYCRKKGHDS
Nature of the test: Gs-mediated cAMP production assay (GloSensor). It counts as cell-based. To be noted: weak partial agonist; receptor not given. Background: Changes in cAMP serve as a functional read-out for many G protein-coupled receptors.

The target of test [2] is T1, MT2. Briefly: Bias factor, Gi-cAMP versus Tango (Black and Leff operational model), MT2. Type of test: cell-based. Set-up: expressed in transfected cells; host or cells: HEK293T (ATCC CRL-11268), transient transfection. To be noted: G-protein over β-arrestin at MT2; reference melatonin; 10^ΔΔLog(τ/KA). The protocol: Bias factors were estimated according to the published procedure [Kenakin et al. (2012)] with modifications. Briefly, normalized and pooled results were analyzed by fitting the Black and Leff operational model in Prism 7.0 to obtain Log(τ/KA) values for each pathway (Tango and Gi-cAMP). Within each signaling pathway, a difference of Log(τ/KA), ΔLog(τ/KA), between a test compound and selected reference (melatonin in this case) was calculated. For a testing compound, the difference of ΔLog(τ/KA), ΔΔLog(τ/KA), was then obtained between two pathways. The bias factor is 10^ΔΔLog(τ/KA).

For a further test, the target named is T3, MT1 (Homo sapiens, UniProt P48039).
T3 construct: expressed in transfected cells; host or cells: HEK293T (ATCC CRL-11268), transient transfection
T3 sequence (P48039 whole entry): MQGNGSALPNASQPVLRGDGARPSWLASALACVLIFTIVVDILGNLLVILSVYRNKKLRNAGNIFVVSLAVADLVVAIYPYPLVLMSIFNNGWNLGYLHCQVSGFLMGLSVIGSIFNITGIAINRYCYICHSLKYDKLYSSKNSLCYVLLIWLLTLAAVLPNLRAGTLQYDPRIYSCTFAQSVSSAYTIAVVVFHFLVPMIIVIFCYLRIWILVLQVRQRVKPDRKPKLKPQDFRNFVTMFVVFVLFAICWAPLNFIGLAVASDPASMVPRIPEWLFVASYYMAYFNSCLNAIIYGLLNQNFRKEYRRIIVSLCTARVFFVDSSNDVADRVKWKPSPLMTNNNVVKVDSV
Nature of the test: [3H]melatonin competition radioligand binding, MT1 membranes. Conditions: read-out: MT1 pKi ± SEM (converted). On the procedure:
as §1

The target in test [3] is T4, MT1 N162Q mutant receptor (Homo sapiens, UniProt P48039, N162Q).
T4 construct: expressed in transfected cells; host or cells: HTLA cells (HEKT based)
T4 sequence (P48039 whole entry N162Q): as the sequence (P48039 whole entry) above, with N162Q counted along it
Briefly: Tango β-arrestin recruitment assay, MT1 N162Q mutant. Type of test: cell-based. To be noted: normalized individually (basal 0%, maximum 100%); mean ± SEM, minimum of 3 assays; read-out: pEC50, Tango, MT1 N162Q (converted). The protocol:
In brief, HTLA cells were transiently transfected with receptor TANGO DNA constructs overnight in DMEM with 10% FBS. Transfected cells were then plated into poly-L-Lys coated 384-well plates using DMEM supplemented with 1% dialyzed FBS. After 6 hr incubation, drug dilutions, prepared in DMEM with 1% dFBS, were added for incubation overnight (16–20 hr). Medium and drug solutions were removed, Bright-Glo reagent (20 uL/well) was added for luminescence counting 20 min later. Results were analyzed in GraphPad Prism 7.0.
For orientation: Recruitment of arrestin is a read-out of receptor activation apart from second messengers.

In another test the target is T5, 5-HT1A (Homo sapiens, UniProt P08908).
T5 construct: expressed in transfected cells; host or cells: HEK293T, transient transfection (NIMH PDSP)
T5 sequence (P08908 1-422): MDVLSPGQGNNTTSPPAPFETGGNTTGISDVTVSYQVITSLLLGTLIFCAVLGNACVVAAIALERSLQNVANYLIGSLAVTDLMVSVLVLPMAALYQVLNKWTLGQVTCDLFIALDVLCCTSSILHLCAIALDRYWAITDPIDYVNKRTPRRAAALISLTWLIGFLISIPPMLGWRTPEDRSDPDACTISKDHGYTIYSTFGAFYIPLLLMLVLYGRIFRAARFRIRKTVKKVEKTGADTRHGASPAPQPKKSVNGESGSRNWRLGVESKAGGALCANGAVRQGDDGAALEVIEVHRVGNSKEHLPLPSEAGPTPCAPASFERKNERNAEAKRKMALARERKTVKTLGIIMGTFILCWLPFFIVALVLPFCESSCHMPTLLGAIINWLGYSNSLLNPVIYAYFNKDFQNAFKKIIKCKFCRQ
Nature of the test: Off-target radioligand binding, 5-HT1A. The protocol:
as §1

For another test, the target named is T6, 5-HT1D (Homo sapiens, UniProt P28221).
T6 construct: expressed in transfected cells; host or cells: HEK293T, transient transfection (NIMH PDSP)
T6 sequence (P28221 whole entry, species assumed): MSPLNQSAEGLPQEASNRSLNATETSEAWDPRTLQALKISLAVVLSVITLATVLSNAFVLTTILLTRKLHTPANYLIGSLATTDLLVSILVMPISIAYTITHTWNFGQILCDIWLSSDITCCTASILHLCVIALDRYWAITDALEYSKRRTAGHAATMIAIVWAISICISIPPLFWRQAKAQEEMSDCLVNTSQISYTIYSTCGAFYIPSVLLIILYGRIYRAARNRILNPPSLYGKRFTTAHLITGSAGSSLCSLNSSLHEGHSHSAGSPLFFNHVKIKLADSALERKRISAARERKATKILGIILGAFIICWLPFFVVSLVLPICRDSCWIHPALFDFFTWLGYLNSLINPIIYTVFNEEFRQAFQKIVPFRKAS
Briefly: Off-target radioligand binding, 5-HT1D. The protocol: as §1

In the case of `COc1ccc2[nH]cc(CCNC(N)=O)c2c1` [Compound 28, [2-(5-methoxy-1H-indol-3-yl)ethyl]urea], the Ki at MT2 [1] was 23.4 nM; on MT1 it was 16.6 nM; at 5-HT1A (read-out: pKi, 5-HT1A (converted)), 851 nM; on 5-HT1D (read-out: pKi, 5-HT1D (converted)), 1510 nM. Further, the EC50 at 5-HT7A was 1820 nM; in test [3], 468 nM. This compound displayed a bias factor at MT2 [2] of 33.9. Further, the inhibition at 10 µM on 5-HT1A (10 μM) and at 5-HT1D (10 μM) was over 50% in each case.

The term inhibition denotes the share of the control response that was lost under treatment. Higher therefore signals a response far below the control.
